As a reminder, the IC50 is the midpoint of a concentration-inhibition curve. As a reminder, the Ki is a dissociation constant, usually derived from enzyme kinetics or from competition with a known ligand.

Series [1] can be described thus: DRUGMATRIX: Calcium Channel Type L, Phenylalkylamine radioligand binding (ligand: [3H] (-)-Desmethoxyverapamil (D-888)). The format is cell membranes, Rattus norvegicus, Wistar, Brain, Membrane. The conditions noted are these: Not Active = under 50% inhibition at 10 µM.
Series [2] can be described thus: DRUGMATRIX: Purinergic P2X radioligand binding (ligand: [3H] alpha, beta-Methylene-ATP). The conditions noted are these: Not Active = under 50% inhibition at 10 µM. The format is cell membranes, Oryctolagus cuniculus, New Zealand albino, Urinary bladder, Membrane.
Series [3] in a line: DRUGMATRIX: Calcium Channel Type L, Benzothiazepine radioligand binding (ligand: [3H] Diltiazem). It is filed as cell membranes, Rattus norvegicus, Wistar, Brain, Membrane. The conditions noted are these: Not Active = under 50% inhibition at 10 µM.
For series [4], the target named is 5-hydroxytryptamine receptor 4 (Cavia porcellus, UniProt O70528). It is filed as cell membranes, Dunkin-Hartley, Striatum, Membrane. Further: in other assays of this panel Not Active means under 50% inhibition at 10 µM.
5-hydroxytryptamine receptor 4, sequence (O70528 whole entry): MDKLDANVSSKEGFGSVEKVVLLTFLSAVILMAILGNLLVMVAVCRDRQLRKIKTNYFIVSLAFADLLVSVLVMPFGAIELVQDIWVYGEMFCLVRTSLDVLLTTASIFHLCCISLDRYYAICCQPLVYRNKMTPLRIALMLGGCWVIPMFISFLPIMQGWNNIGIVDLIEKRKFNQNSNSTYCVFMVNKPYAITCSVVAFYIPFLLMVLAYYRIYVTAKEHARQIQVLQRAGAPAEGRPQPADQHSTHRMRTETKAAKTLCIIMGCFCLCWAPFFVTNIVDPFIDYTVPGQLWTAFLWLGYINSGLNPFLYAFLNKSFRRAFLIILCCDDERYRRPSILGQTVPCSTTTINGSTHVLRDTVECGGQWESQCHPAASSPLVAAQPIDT
Series [5] has as its target T1, Cytochrome P450 2A6 (Homo sapiens, UniProt P11509). Further: in other assays of this panel Not Active means under 50% inhibition at 10 µM.
T1 sequence (P11509 whole entry): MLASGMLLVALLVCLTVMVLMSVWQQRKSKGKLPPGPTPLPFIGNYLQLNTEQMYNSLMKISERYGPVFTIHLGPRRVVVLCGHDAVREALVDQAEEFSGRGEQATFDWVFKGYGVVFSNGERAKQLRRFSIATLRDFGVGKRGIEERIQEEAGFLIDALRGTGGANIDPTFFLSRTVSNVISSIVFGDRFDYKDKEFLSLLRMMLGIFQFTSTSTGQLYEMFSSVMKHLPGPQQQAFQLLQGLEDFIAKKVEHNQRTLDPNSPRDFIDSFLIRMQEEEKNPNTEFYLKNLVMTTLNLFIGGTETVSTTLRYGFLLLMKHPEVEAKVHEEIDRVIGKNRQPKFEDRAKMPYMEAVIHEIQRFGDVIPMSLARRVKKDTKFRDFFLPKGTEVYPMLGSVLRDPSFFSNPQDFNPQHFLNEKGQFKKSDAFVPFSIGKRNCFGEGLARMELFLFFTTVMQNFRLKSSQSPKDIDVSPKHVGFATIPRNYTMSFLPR
The conditions noted are these: bti-tn-5b1-4.

A short description of series [6]: DRUGMATRIX: Nicotinic Acetylcholine radioligand binding (ligand: [125I] Epibatidine). It is filed as cell membranes, Membrane. The conditions noted are these: imr-32; Not Active = under 50% inhibition at 10 µM.
Series [7] concerns the target T2, Alpha-2A adrenergic receptor (Homo sapiens, UniProt P08913). Further: in other assays of this panel Not Active means under 50% inhibition at 10 µM.
T2 sequence (P08913 whole entry): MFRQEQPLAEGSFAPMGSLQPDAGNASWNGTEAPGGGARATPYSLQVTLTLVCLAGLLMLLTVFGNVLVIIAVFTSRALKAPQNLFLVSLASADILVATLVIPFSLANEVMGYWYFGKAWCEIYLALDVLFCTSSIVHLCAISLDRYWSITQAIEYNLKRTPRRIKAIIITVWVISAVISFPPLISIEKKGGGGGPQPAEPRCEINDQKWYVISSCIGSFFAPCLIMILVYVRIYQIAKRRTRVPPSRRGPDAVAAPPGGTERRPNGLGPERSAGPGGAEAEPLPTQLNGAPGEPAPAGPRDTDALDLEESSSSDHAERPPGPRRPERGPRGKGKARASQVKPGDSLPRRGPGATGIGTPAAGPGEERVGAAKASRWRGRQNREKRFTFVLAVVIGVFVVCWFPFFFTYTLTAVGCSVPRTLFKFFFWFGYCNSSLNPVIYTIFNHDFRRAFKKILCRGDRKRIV
The format is cell membranes, Sf9, Membrane.

Regarding `CC(C)C[C@H]1C(=O)N2CCC[C@H]2[C@]2(O)O[C@](NC(=O)[C@@H]3C=C4c5cccc6[nH]cc(c56)C[C@H]4N(C)C3)(C(C)C)C(=O)N12` [ERGOCRYPTINE], the IC50 result in series [1], in series [2], in series [3], in series [4], in series [5] and in series [6] was “Not Active” each time. For the same compound, in series [7] (read-out: IC50), the IC50 is 7.95 nM. For the same compound, the Ki result in series [1] was “Not Active”; in series [2], “Not Active”; in series [3], “Not Active”; in series [5], “Not Active”; in series [6], “Not Active”; in series [7] (read-out: Ki) it was 2.98 nM.
Take `C[C@]12CC[C@@H]3c4ccc(O)cc4CC[C@H]3[C@@H]1C[C@@H](O)[C@@H]2O` [ESTRIOL]: the IC50 entry in series [1], in series [2], in series [3], in series [4], in series [5] and in series [6] was “Not Active” throughout. Besides, the IC50 result in series [7] (sf9) is “Not Active”. The Ki result in series [1], in series [2], in series [3], in series [5] and in series [6] was “Not Active” each time.
On to `C#C[C@]1(O)CC[C@H]2[C@@H]3CCC4=CC(=O)CC[C@]4(C)[C@H]3CC[C@@]21C` [ETHISTERONE], for which the IC50 entry in series [1], in series [2], in series [3], in series [4], in series [5] and in series [6] was “Not Active” each time. For the same compound, the IC50 entry in series [7] (sf9) was “Not Active”. Besides, the Ki entry in series [1], in series [2], in series [3], in series [5] and in series [6] was “Not Active” in each case.
Consider `CC(O)(P(=O)(O)O)P(=O)(O)O` [ETIDRONIC ACID], for which the IC50 entry in series [1], in series [2], in series [3], in series [4], in series [5] and in series [6] was “Not Active” throughout. Besides, the 50% inhibitory concentration (IC50) entry in series [7] (sf9) is listed as “Not Active”. In addition, the Ki entry in series [1], in series [2], in series [3], in series [5] and in series [6] was “Not Active” in each case.
On to `CC(C)(C(=O)O)c1ccc(C(O)CCCN2CCC(C(O)(c3ccccc3)c3ccccc3)CC2)cc1` (centres undefined) [FEXOFENADINE], for which the IC50 result in series [1], in series [2], in series [3], in series [4], in series [5] and in series [6] was “Not Active” each time. Moreover, the IC50 entry in series [7] (sf9) is on record as “Not Active”. The Ki entry in series [1], in series [2], in series [3], in series [5] and in series [6] was “Not Active” throughout.
As to `CN1CCN(c2c(F)cc3c(=O)c(C(=O)O)cn(CCF)c3c2F)CC1` [FLEROXACIN], the IC50 entry in series [1], in series [2], in series [3], in series [4], in series [5] and in series [6] was “Not Active” in each case. Besides, the IC50 result in series [7] (sf9) was “Not Active”. Further, the Ki result in series [1], in series [2], in series [3], in series [5] and in series [6] was “Not Active” in each case.
Turning to `O=c1[nH]c(=O)n([C@H]2C[C@H](O)[C@@H](CO)O2)cc1F` [FLOXURIDINE], the IC50 entry in series [1], in series [2], in series [3], in series [4], in series [5] and in series [6] was “Not Active” in each case. The concentration for half-maximal inhibition (IC50) result in series [7] (sf9) was “Not Active”. Further, the Ki entry in series [1], in series [2], in series [3], in series [5] and in series [6] was “Not Active” each time.
For `COC(=O)Nc1nc2cc(C(=O)c3ccc(F)cc3)ccc2[nH]1` [FLUBENDAZOLE], the IC50 entry in series [1], in series [2], in series [3], in series [4], in series [5] and in series [6] was “Not Active” throughout. The IC50 entry in series [7] (sf9) is reported as “Not Active”. Besides, the Ki entry in series [1], in series [2], in series [3], in series [5] and in series [6] was “Not Active” in each case.
Take `CC(=O)OCC(=O)[C@@]1(O)CC[C@H]2[C@@H]3CCC4=CC(=O)CC[C@]4(C)[C@@]3(F)[C@@H](O)C[C@@]21C` [FLUDROCORTISONE ACETATE]: the IC50 result in series [1], in series [2], in series [3], in series [4], in series [5] and in series [6] was “Not Active” in each case. In series [7] (sf9), the IC50 entry is recorded as “Not Active”. Besides, the Ki result in series [1], in series [2], in series [3], in series [5] and in series [6] was “Not Active” each time.
As for `CCOC(=O)c1ncn2c1CN(C)C(=O)c1cc(F)ccc1-2` [FLUMAZENIL], the half-maximal inhibitory concentration (IC50) entry in series [1], in series [2], in series [3], in series [4], in series [5] and in series [6] was “Not Active” throughout. Moreover, the IC50 entry in series [7] (sf9) was “Not Active”. Also, the inhibitory constant (Ki) entry in series [1], in series [2], in series [3], in series [5] and in series [6] was “Not Active” each time.
With `O=C(O)P(=O)(O)O` [FOSCARNET], the IC50 entry in series [1], in series [2], in series [3], in series [4], in series [5] and in series [6] was “Not Active” each time. Also, in series [7] (sf9), the IC50 result was “Not Active”. The inhibition constant (Ki) result in series [1], in series [2], in series [3], in series [5] and in series [6] was “Not Active” in each case.
Take `Cc1ccc(C)c(OCCCC(C)(C)C(=O)O)c1` [GEMFIBROZIL]: the IC50 result in series [1], in series [2], in series [3], in series [4], in series [5] and in series [6] was “Not Active” in each case. Also, in series [7] (sf9), the IC50 result is “Not Active”. The Ki entry in series [1], in series [2], in series [3], in series [5] and in series [6] was “Not Active” each time.
On to `O=c1c(-c2ccc(O)cc2)coc2cc(O)cc(O)c12` [GENISTEIN], for which the IC50 entry in series [1], in series [2], in series [3], in series [4], in series [5] and in series [6] was “Not Active” each time. Further, the IC50 result in series [7] (sf9) is listed as “Not Active”. Further, the Ki entry in series [1], in series [2], in series [3], in series [5] and in series [6] was “Not Active” throughout.
`CCC1=C(C)CN(C(=O)NCCc2ccc(S(=O)(=O)NC(=O)N[C@H]3CC[C@H](C)CC3)cc2)C1=O` [GLIMEPIRIDE]: the half-inhibitory concentration (IC50) result in series [1], in series [2], in series [3], in series [4], in series [5] and in series [6] was “Not Active” each time. The IC50 result in series [7] (sf9) is given as “Not Active”. For the same compound, the Ki result in series [1], in series [2], in series [3], in series [5] and in series [6] was “Not Active” each time.
